Measurements published in patent US12390437B2, “Itaconic acid derivatives and uses thereof intreating an inflammatory disease or a disease associated with an undesirable immune response” (Sitryx Therapeutics Limited, priority 2019, dated 2025).
Structures can show the parent of a compound that is named as a salt. Where two headings read alike, the source gives them in different places.

Experiments:
[1] = system: IL-6 cytokine output from THP-1s; assay: THP-1 AlphaLISA IL-6 cytokine assay; assay type: cell-based, human; conditions: Homo sapiens; PMA-differentiated THP-1 cells, LPS 24 hr then Nigericin 1 hour
Method in brief: (§1)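 Cells are differentiated with PMA over 72 h, switched to 1% FBS medium and treated with compound for 30 min before LPS stimulation for 24 h. Nigericin is added for a final hour, and secreted cytokine is measured by AlphaLISA, with IC50 fitted from percent inhibition.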

[2] = system: IL-1β cytokine output from isolated primary human monocytes; assay: Primary human monocyte AlphaLISA IL-1β cytokine assay; assay type: cell-based; conditions: CD14+ primary human monocytes, LPS 24 hr then Nigericin 1 hour; for IC50: Monocyte
Description: Measuring Inhibitory Effects on IL-1β and IL-6 Cytokine Output from Isolated Primary Human Monocytes
The cytokine inhibition profiles of compounds of formula (IW-1) were determined in a CD14^+ isolated primary human monocyte cell assay. All assays were performed in RPMI-1640 growth medium (Gibco), supplemented with heat-inactivated fetal bovine serum (FBS) and 1% penicillin-streptomycin unless specified otherwise. The IL-1β and IL-6 cytokine inhibition assays were each run in a background of isolated primary human monocyte cells as described below. All reagents described were from Sigma-Aldrich unless specified otherwise. Compounds were prepared as 100 mM DMSO stocks.
Primary peripheral blood mononuclear cells (PBMCs) were isolated from human whole blood. Following PBMC isolation, a CD14^+ monocyte isolation step was conducted whereby CD14^+ magnetic beads (Miltenyi Biotec) were incubated for 15 minutes with the PBMC suspension that was previously treated with ice cold T-cell isolation buffer (PBS, 0.5% BSA, 2 mM EDTA). Following bead incubation, the treated cell suspension was passed through a magnetic separation column designed to positively select for magnetically labelled cells. The isolated CD14^+ monocytes were subsequently plated at the appropriate cell density for the assay, prior to compound treatment on the day of plating. Working concentrations of compounds were prepared separately in RPMI-1640 only growth medium and pre-incubated with the cells for 30 minutes (37° C./5% CO2). Following the 30 minute compound pre-incubation, primary monocytes were treated with an appropriate concentration of LPS and subsequently incubated for a 24 hr period (37° C./5% CO2). An appropriate final concentration of Nigericin was then dispensed into the primary monocyte plates and incubated for 1 hour (37° C./5% CO2) before monocyte supernatants were harvested and collected in separate polypropylene 96-well holding plates prior to commencing the AlphaLISA cytokine assay.
Reagents from each of the IL-1β and IL-6 commercial kits (Perkin Elmer) were prepared and run according to the manufacturer's instructions. Subsequently, fluorescence signal was measured in a microplate reader (EnVision® Multilabel Reader, Perkin Elmer).
Percentage inhibition was calculated per cytokine by normalising the sample data to the high and low controls used within each plate (+/−LPS respectively). Percentage inhibition was then plotted against compound concentration and the 50% inhibitory concentration (IC50) was determined from the resultant concentration-response curve.

[3] = system: IL-1β cytokine output from THP-1s; assay: THP-1 AlphaLISA IL-1β cytokine assay; assay type: cell-based, human; conditions: Homo sapiens, read-out: IL-1β (IC50)
Method in brief: as §1

[4] = Mouse pharmacokinetic study, intravenous dosing; assay type: in vivo; conditions: male, C57BL/6, mouse, iv, plasma, 10 mg/kg i.v., read-out: Parent compound concentration following intravenous administration
Method in brief: (§2)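 Oral arm: 100 mg/kg gavage in 5% DMSO with 0.5% HPMC/0.1% Tween 80, blood from 5 min to 24 h. Intravenous arm: 10 mg/kg tail-vein injection in 10% DMSO with HP-β-CD, blood from 3 min to 8 h. Male C57BL/6 mice; LC-MS/MS on plasma.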

[5] = Mouse pharmacokinetic study, oral administration; assay type: in vivo; conditions: for concentration at 0.083 h / concentration at 0.25 h / concentration at 0.5 h / concentration at 1 h / concentration at 2 h / concentration at 4 h / concentration at 6 h / concentration at 8 h / concentration at 24 h: male
Method in brief: as §2

[6] = THP-1, PMA-differentiated THP-1 cells, LPS 24 hr then Nigericin 1 hour
[7] = C57BL/6, mouse, plasma, po, 100 mg/kg, plasma, male C57BL/6 mice, oral gavage 100 mg/kg, 0.083 h, read-out: Parent compound concentrations following oral administration, Time 0.083 h
[8] = C57BL/6, mouse, plasma, po, 100 mg/kg, plasma, male C57BL/6 mice, oral gavage 100 mg/kg, 0.25 h, read-out: Parent compound concentrations following oral administration, Time 0.25 h
[9] = C57BL/6, mouse, plasma, po, 100 mg/kg, plasma, male C57BL/6 mice, oral gavage 100 mg/kg, 0.5 h, read-out: Parent compound concentrations following oral administration, Time 0.5 h
[10] = C57BL/6, mouse, plasma, po, 100 mg/kg, plasma, male C57BL/6 mice, oral gavage 100 mg/kg, 1 h, read-out: Parent compound concentrations following oral administration, Time 1 h
[11] = C57BL/6, mouse, plasma, po, 100 mg/kg, plasma, male C57BL/6 mice, oral gavage 100 mg/kg, 2 h, read-out: Parent compound concentrations following oral administration, Time 2 h
[12] = C57BL/6, mouse, plasma, po, 100 mg/kg, plasma, male C57BL/6 mice, oral gavage 100 mg/kg, 4 h, read-out: Parent compound concentrations following oral administration, Time 4 h
[13] = C57BL/6, mouse, plasma, po, 100 mg/kg, plasma, male C57BL/6 mice, oral gavage 100 mg/kg, 6 h, read-out: Parent compound concentrations following oral administration, Time 6 h
[14] = C57BL/6, mouse, plasma, po, 100 mg/kg, plasma, male C57BL/6 mice, oral gavage 100 mg/kg, 8 h, read-out: Parent compound concentrations following oral administration, Time 8 h
[15] = C57BL/6, mouse, plasma, po, 100 mg/kg, plasma, male C57BL/6 mice, oral gavage 100 mg/kg, 24 h, read-out: Parent compound concentrations following oral administration, Time 24 h
[16] = THP-1, Table 10, assay of Biological Example 1 (THP-1)

SMILES | IC50 [1] | IC50 [2] | IC50 [3, 6] | IL-1β (IC50) [2] | concentration at 0.05 h [4] | concentration at 0.133 h [4] | concentration at 0.25 h [4] | concentration at 0.5 h [4] | concentration at 1 h [4] | concentration at 2 h [4] | concentration at 4 h [4] | concentration at 6 h [4] | concentration at 8 h [4] | concentration at 0.083 h [5, 7] | concentration at 0.25 h [5, 8] | concentration at 0.5 h [5, 9] | concentration at 1 h [5, 10] | concentration at 2 h [5, 11] | concentration at 4 h [5, 12] | concentration at 6 h [5, 13] | further results
C=C(CC(=O)OCCCCCCCC)C(=O)OCCC#N [Example 1, 1-(2-cyanoethyl) 4-octyl 2-methylenesuccinate] | 6 µM | 8.9 µM | 9.3 µM |  |  |  |  |  |  |  |  |  |  |  |  |  |  |  |  |  | 
C=C(CC(=O)OCCCCCCCC)C(=O)OCCS(C)(=O)=O [Example 2, 1-(2-(methylsulfonyl)ethyl) 4-octyl 2-methylenesuccinate] | 2.9 µM | 3.6 µM | 5 µM | lower IC5s than dimethyl fumarate |  |  |  |  |  |  |  |  |  |  |  |  |  |  |  |  | 
C=C(CC(=O)OCCCCCCCC)C(=O)OCCC(F)(F)F [Example 3, 4-octyl 1-(3,3,3-trifluoropropyl) 2-methylenesuccinate] | 56.2 µM | 3.9 µM | 15.6 µM | lower IC5s than dimethyl fumarate |  |  |  |  |  |  |  |  |  |  |  |  |  |  |  |  | 
C=C(CC(=O)OCCCCCCCC)C(=O)OCCN1C(=O)CCC1=O [Example 9, 1-(2-(2,5-dioxopyrrolidin-1-yl)ethyl) 4-octyl 2-methylenesuccinate] | 2.2 µM | 3.3 µM | 4.7 µM | lower IC5s than dimethyl fumarate |  |  |  |  |  |  |  |  |  |  |  |  |  |  |  |  | 
C=C(CC(=O)O[C@H](C)CCCCCC)C(=O)OCCC(=O)O [Example 88, (R)-3-((2-methylene-4-(octan-2-yloxy)-4-oxobutanoyl)oxy)propanoic acid] | 20.4 µM | 17.3 µM | 25.2 µM |  | 42500 ng/mL | 23500 ng/mL | 12400 ng/mL | 6250 ng/mL | 2510 ng/mL | 200 ng/mL | 40 ng/mL | 11 ng/mL | 4.2 ng/mL | 53900 ng/mL | 43600 ng/mL | 33800 ng/mL | 12700 ng/mL | 10500 ng/mL | 4100 ng/mL | 1950 ng/mL | concentration at 8 h [5, 14]: 72 ng/mL; concentration at 24 h [5, 15]: 5.5 ng/mL
C=C(CC(=O)OC1CCCCCCC1)C(=O)OCC(=O)O [Example 90, 2-((4-(cyclooctyloxy)-2-methylene-4-oxobutanoyl)oxy)acetic acid] | 9.8 µM | 81.3 µM | 16.4 µM |  | 19200 ng/mL | 7160 ng/mL | 2020 ng/mL | 1600 ng/mL | 89 ng/mL | 3.6 ng/mL | 2.8 ng/mL | 1.7 ng/mL | 1.2 ng/mL | 22900 ng/mL | 10600 ng/mL | 6200 ng/mL | 3370 ng/mL | 3470 ng/mL | 1640 ng/mL | 1050 ng/mL | concentration at 8 h [5, 14]: 500 ng/mL; concentration at 24 h [5, 15]: 1.1 ng/mL
C=C(CC(=O)O[C@H](C)CCCCCC)C(=O)OCC(=O)O [Example 112, (R)-2-((2-methylene-4-(octan-2-yloxy)-4-oxobutanoyl)oxy)acetic acid] |  | 13.7 µM | 14.6 µM |  | 63500 ng/mL | 40100 ng/mL | 36200 ng/mL | 23500 ng/mL | 13000 ng/mL | 3540 ng/mL | 1510 ng/mL | 424 ng/mL | 154 ng/mL | 79800 ng/mL | 64600 ng/mL | 72300 ng/mL | 49500 ng/mL | 31400 ng/mL | 21300 ng/mL | 6780 ng/mL | concentration at 8 h [5, 14]: 12200 ng/mL; concentration at 24 h [5, 15]: 25 ng/mL; concentration at 0.083 h ([5]; C57BL/6, po, mouse plasma, Example 112 dosed orally at 100 mg/kg (Intermediate 8 = metabolite), time 0.083 h, read-out: Example 112 and Intermediate 8 concentrations following oral administration): 109000 ng/mL; concentration at 0.25 h ([5]; C57BL/6, po, mouse plasma, Example 112 dosed orally at 100 mg/kg (Intermediate 8 = metabolite), time 0.25 h, read-out: Example 112 and Intermediate 8 concentrations following oral administration): 116000 ng/mL; concentration at 0.5 h ([5]; C57BL/6, po, mouse plasma, Example 112 dosed orally at 100 mg/kg (Intermediate 8 = metabolite), time 0.5 h, read-out: Example 112 and Intermediate 8 concentrations following oral administration): 74200 ng/mL; concentration at 1 h ([5]; C57BL/6, po, mouse plasma, Example 112 dosed orally at 100 mg/kg (Intermediate 8 = metabolite), time 1 h, read-out: Example 112 and Intermediate 8 concentrations following oral administration): 27900 ng/mL; concentration at 2 h ([5]; C57BL/6, po, mouse plasma, Example 112 dosed orally at 100 mg/kg (Intermediate 8 = metabolite), time 2 h, read-out: Example 112 and Intermediate 8 concentrations following oral administration): 14000 ng/mL; concentration at 4 h ([5]; C57BL/6, po, mouse plasma, Example 112 dosed orally at 100 mg/kg (Intermediate 8 = metabolite), time 4 h, read-out: Example 112 and Intermediate 8 concentrations following oral administration): 4880 ng/mL; concentration at 6 h ([5]; C57BL/6, po, mouse plasma, Example 112 dosed orally at 100 mg/kg (Intermediate 8 = metabolite), time 6 h, read-out: Example 112 and Intermediate 8 concentrations following oral administration): 4020 ng/mL; concentration at 8 h ([5]; C57BL/6, po, mouse plasma, Example 112 dosed orally at 100 mg/kg (Intermediate 8 = metabolite), time 8 h, read-out: Example 112 and Intermediate 8 concentrations following oral administration): 867 ng/mL; concentration at 24 h ([5]; C57BL/6, po, mouse plasma, Example 112 dosed orally at 100 mg/kg (Intermediate 8 = metabolite), time 24 h, read-out: Example 112 and Intermediate 8 concentrations following oral administration): < 8 ng/mL; Metabolism in vivo ([5]; mouse pharmacokinetic study, oral): undergoes hydrolysis in vivo to form Intermediate 8; IC50 [3, 16]: 14.6 µM
COC(=O)/C=C/C(=O)OC [dimethyl fumarate, reference compound] | 9.3 µM | 8.5 µM | 14.4 µM |  |  |  |  |  |  |  |  |  |  |  |  |  |  |  |  |  | IC50 [3, 16]: 14.4 µM
